Assay results published in ChEMBL document CHEMBL4804284.
The source made the active and inactive calls. The rule behind the calls is not given here.

Experiments:
MV4-11 = assay: Cytotoxicity against human MV4-11 cells expressing FLT3-ITD at 0.1-100 uM assessed as decrease in cell viability relative to control; assay type: functional, cell-based
[1] = target: Activin receptor type-2B (Homo sapiens) (UniProt Q13705); assay: Inhibition of DNA-tagged human ACVR2B assessed as percent of control at 50000 nM by qPCR analysis relative to control; parameters: scale not given: the % may be the effect or the level left
[2] = target: Bone morphogenetic protein receptor type-1A (Homo sapiens) (UniProt P36894); assay: Inhibition of DNA-tagged human BMPR1A assessed as percent of control at 50000 nM by qPCR analysis relative to control; parameters: scale not given: the % may be the effect or the level left
Bone morphogenetic protein receptor type-1A (Homo sapiens), sequence (P36894 whole entry): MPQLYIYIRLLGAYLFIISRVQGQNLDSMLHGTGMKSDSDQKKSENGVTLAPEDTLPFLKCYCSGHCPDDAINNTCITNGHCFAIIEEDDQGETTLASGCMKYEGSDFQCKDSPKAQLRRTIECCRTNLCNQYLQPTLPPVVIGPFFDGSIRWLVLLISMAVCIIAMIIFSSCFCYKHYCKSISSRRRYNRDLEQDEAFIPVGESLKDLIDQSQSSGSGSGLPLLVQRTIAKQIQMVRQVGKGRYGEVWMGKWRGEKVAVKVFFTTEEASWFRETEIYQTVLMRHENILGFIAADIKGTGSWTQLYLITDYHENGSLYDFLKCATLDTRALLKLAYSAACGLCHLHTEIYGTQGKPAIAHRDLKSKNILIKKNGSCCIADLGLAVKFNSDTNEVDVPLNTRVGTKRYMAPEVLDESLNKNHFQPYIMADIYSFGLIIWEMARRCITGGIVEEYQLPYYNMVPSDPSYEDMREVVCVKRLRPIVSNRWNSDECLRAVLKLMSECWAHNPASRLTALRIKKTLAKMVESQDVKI

[3] = target: Homeodomain-interacting protein kinase 3 (Homo sapiens) (UniProt Q9H422); assay: Inhibition of DNA-tagged human HIPK3 assessed as percent of control at 50000 nM by qPCR analysis relative to control; parameters: scale not given: the % may be the effect or the level left
Homeodomain-interacting protein kinase 3 (Homo sapiens), sequence (Q9H422 whole entry, looked up): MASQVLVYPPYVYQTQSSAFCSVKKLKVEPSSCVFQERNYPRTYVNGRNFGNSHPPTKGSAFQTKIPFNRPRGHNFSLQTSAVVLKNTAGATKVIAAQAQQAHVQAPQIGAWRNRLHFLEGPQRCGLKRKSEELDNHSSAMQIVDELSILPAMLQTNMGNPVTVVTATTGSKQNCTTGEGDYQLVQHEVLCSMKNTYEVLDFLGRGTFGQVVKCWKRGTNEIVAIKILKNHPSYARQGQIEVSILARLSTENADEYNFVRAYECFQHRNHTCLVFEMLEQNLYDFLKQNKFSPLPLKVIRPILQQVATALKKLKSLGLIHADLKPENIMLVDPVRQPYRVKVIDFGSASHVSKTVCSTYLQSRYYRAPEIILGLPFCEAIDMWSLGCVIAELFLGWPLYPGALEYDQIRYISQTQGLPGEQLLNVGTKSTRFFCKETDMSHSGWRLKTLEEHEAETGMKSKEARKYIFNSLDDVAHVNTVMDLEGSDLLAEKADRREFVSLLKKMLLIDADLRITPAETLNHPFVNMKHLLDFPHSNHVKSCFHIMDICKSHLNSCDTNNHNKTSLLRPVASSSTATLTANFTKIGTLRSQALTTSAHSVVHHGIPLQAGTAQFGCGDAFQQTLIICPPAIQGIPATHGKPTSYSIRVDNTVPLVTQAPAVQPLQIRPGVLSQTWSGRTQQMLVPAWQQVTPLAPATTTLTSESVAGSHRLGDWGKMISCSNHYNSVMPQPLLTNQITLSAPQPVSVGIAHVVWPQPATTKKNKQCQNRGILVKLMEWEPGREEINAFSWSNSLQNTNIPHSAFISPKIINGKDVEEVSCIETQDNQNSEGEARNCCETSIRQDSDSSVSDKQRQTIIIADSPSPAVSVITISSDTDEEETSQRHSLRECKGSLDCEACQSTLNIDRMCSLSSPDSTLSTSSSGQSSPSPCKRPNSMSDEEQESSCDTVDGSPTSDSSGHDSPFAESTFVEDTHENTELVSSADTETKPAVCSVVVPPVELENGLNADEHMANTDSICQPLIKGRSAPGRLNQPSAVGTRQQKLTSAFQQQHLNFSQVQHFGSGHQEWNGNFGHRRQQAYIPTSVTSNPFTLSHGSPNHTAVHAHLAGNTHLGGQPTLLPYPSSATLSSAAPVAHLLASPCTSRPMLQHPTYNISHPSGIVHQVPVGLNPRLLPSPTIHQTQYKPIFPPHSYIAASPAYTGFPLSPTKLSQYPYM

[4] = target: Non-receptor tyrosine-protein kinase TNK1 (Homo sapiens) (UniProt Q13470); assay: Inhibition of DNA-tagged human TNK1 assessed as percent of control at 50000 nM by qPCR analysis relative to control; parameters: scale not given: the % may be the effect or the level left
Non-receptor tyrosine-protein kinase TNK1 (Homo sapiens), sequence (Q13470 whole entry): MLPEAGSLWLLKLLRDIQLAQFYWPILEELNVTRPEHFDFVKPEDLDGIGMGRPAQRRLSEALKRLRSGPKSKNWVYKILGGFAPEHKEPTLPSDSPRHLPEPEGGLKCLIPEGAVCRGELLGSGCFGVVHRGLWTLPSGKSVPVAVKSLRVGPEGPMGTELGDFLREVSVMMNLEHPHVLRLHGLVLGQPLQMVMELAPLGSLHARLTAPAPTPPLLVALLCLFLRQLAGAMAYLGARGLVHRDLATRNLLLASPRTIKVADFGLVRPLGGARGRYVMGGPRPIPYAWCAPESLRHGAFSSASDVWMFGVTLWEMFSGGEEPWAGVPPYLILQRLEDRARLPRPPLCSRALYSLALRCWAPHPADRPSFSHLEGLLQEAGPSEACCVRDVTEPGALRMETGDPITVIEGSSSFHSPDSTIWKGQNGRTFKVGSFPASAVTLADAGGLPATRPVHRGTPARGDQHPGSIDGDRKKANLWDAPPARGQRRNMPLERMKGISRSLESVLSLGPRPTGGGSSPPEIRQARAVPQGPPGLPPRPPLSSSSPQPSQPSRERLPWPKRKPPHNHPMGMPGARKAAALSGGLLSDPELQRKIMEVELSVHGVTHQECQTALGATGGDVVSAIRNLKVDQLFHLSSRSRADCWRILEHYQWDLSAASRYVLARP

[5] = target: Serine/threonine-protein kinase D2 (Homo sapiens) (UniProt Q9BZL6); assay: Inhibition of DNA-tagged human PRKD2 assessed as percent of control at 50000 nM by qPCR analysis relative to control; parameters: scale not given: the % may be the effect or the level left
[6] = target: Mitogen-activated protein kinase 4 (Homo sapiens) (UniProt P31152); assay: Inhibition of DNA-tagged human ERK4 assessed as percent of control at 50000 nM by qPCR analysis relative to control; parameters: scale not given: the % may be the effect or the level left
[7] = target: Tyrosine-protein kinase TXK (Homo sapiens) (UniProt P42681); assay: Inhibition of DNA-tagged human TXK assessed as percent of control at 50000 nM by qPCR analysis relative to control; parameters: scale not given: the % may be the effect or the level left
Tyrosine-protein kinase TXK (Homo sapiens), sequence (P42681 whole entry): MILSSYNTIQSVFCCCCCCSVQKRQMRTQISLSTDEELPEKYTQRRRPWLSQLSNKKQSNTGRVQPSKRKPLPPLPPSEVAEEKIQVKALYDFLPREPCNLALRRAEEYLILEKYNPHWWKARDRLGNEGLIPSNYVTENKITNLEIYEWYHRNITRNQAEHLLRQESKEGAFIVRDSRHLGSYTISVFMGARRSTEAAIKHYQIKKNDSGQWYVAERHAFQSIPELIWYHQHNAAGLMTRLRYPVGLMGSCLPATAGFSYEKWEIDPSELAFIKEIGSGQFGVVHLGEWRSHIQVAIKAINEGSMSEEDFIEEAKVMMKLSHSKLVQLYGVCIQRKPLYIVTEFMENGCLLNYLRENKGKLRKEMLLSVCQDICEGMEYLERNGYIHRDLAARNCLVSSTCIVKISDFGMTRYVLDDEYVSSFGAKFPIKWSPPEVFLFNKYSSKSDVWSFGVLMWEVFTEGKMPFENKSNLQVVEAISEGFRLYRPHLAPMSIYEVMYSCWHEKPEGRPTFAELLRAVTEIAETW

[8] = target: Activin receptor type-2A (Homo sapiens) (UniProt P27037); assay: Inhibition of DNA-tagged human ACVR2A assessed as percent of control at 50000 nM by qPCR analysis relative to control; parameters: scale not given: the % may be the effect or the level left
[9] = target: Serine/threonine-protein kinase TAO2 (Homo sapiens) (UniProt Q9UL54); assay: Inhibition of DNA-tagged human TAOK2 assessed as percent of control at 50000 nM by qPCR analysis relative to control; parameters: scale not given: the % may be the effect or the level left
[10] = target: Macrophage colony-stimulating factor 1 receptor (Homo sapiens) (UniProt P07333); assay: Inhibition of DNA-tagged human CSF1R assessed as percent of control at 50000 nM by qPCR analysis relative to control; parameters: scale not given: the % may be the effect or the level left
[11] = target: Cyclin-dependent kinase 2 (Homo sapiens) (UniProt P24941); assay: Inhibition of DNA-tagged human CDK2 assessed as percent of control at 50000 nM by qPCR analysis relative to control; parameters: scale not given: the % may be the effect or the level left
[12] = target: Phosphorylase b kinase gamma catalytic chain, skeletal muscle/heart isoform (Homo sapiens) (UniProt Q16816); assay: Inhibition of DNA-tagged human PHKG1 assessed as percent of control at 50000 nM by qPCR analysis relative to control; parameters: scale not given: the % may be the effect or the level left
[13] = target: Mitogen-activated protein kinase kinase kinase 2 (Homo sapiens) (UniProt Q9Y2U5); assay: Inhibition of DNA-tagged human MAP3K2 assessed as percent of control at 50000 nM by qPCR analysis relative to control; parameters: scale not given: the % may be the effect or the level left
[14] = target: Serine/threonine-protein kinase ULK1 (Homo sapiens) (UniProt O75385); assay: Inhibition of DNA-tagged human ULK1 assessed as percent of control at 50000 nM by qPCR analysis relative to control; parameters: scale not given: the % may be the effect or the level left
Serine/threonine-protein kinase ULK1 (Homo sapiens), sequence (O75385 whole entry): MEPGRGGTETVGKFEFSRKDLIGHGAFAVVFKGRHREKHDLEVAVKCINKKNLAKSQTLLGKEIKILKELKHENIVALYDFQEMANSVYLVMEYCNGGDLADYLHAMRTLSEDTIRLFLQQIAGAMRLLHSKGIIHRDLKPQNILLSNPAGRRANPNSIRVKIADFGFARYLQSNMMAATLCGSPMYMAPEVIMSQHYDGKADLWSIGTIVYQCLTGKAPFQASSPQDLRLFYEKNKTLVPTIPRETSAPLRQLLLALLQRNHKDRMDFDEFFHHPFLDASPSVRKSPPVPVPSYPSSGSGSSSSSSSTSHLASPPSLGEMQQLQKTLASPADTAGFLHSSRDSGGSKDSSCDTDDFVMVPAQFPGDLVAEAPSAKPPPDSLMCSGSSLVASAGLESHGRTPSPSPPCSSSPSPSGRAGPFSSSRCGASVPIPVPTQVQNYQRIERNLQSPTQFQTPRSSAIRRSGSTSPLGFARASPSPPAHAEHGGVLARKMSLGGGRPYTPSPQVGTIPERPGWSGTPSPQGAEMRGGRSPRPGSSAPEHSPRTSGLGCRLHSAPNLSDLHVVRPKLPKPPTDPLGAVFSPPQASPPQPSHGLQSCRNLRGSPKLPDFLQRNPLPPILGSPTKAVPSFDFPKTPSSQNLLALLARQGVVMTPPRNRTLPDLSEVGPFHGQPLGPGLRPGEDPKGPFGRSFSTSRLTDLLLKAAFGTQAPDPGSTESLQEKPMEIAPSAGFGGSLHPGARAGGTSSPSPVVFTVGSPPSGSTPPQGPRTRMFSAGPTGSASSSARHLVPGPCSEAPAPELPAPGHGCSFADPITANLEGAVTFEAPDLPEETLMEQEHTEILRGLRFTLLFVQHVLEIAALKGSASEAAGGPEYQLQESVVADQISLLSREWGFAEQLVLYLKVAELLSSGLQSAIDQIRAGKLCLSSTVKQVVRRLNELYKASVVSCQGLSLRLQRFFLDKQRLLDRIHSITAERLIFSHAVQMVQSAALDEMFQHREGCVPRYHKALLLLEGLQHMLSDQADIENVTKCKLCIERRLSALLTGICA

[15] = target: Calcium/calmodulin-dependent protein kinase kinase 2 (Homo sapiens) (UniProt Q96RR4); assay: Inhibition of DNA-tagged human CAMKK2 assessed as percent of control at 50000 nM by qPCR analysis relative to control; parameters: scale not given: the % may be the effect or the level left
[16] = test system: Epidermal growth factor receptor (Homo sapiens), P00533 [L861Q]; assay: Inhibition of DNA-tagged human EGFR L861Q mutant assessed as percent of control at 50000 nM by qPCR analysis relative to control; parameters: scale not given: the % may be the effect or the level left
[17] = target: Ephrin type-B receptor 2 (Homo sapiens) (UniProt P29323); assay: Inhibition of DNA-tagged human EPHB2 assessed as percent of control at 50000 nM by qPCR analysis relative to control; parameters: scale not given: the % may be the effect or the level left
[18] = target: Serine/threonine-protein kinase PAK 6 (Homo sapiens) (UniProt Q9NQU5); assay: Inhibition of DNA-tagged human PAK6 assessed as percent of control at 50000 nM by qPCR analysis relative to control; parameters: scale not given: the % may be the effect or the level left
Serine/threonine-protein kinase PAK 6 (Homo sapiens), sequence (Q9NQU5 whole entry, looked up): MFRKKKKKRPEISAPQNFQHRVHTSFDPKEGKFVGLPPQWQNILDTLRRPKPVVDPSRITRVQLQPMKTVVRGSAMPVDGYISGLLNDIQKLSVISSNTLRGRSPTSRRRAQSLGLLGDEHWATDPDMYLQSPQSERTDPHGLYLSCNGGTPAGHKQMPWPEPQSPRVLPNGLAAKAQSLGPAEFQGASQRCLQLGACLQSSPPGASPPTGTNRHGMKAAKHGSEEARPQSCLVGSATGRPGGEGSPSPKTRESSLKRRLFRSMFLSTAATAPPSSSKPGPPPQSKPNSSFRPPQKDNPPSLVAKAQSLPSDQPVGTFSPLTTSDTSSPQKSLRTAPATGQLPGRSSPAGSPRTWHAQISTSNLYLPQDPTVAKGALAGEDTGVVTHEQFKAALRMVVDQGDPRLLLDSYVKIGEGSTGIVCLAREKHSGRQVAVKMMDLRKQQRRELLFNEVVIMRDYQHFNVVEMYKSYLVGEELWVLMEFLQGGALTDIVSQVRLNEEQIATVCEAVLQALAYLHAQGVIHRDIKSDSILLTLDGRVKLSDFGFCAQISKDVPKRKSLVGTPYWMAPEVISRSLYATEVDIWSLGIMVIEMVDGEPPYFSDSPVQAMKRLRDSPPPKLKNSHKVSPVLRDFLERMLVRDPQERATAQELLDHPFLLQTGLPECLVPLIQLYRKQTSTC

[19] = target: Mitogen-activated protein kinase kinase kinase 6 (Homo sapiens) (UniProt O95382); assay: Inhibition of DNA-tagged human ASK2 assessed as percent of control at 50000 nM by qPCR analysis relative to control; parameters: scale not given: the % may be the effect or the level left
[20] = test system: Epidermal growth factor receptor (Homo sapiens), P00533 [UNDEFINED MUTATION]; assay: Inhibition of DNA-tagged human EGFR L747-E749del/A750P double mutant assessed as percent of control at 50000 nM by qPCR analysis relative to control; parameters: scale not given: the % may be the effect or the level left
[21] = target: STE20/SPS1-related proline-alanine-rich protein kinase (Homo sapiens) (UniProt Q9UEW8); assay: Inhibition of DNA-tagged human STK39 assessed as percent of control at 50000 nM by qPCR analysis relative to control; parameters: scale not given: the % may be the effect or the level left
[22] = target: Casein kinase II subunit alpha' (Homo sapiens) (UniProt P19784); assay: Inhibition of DNA-tagged human CSNK2A2 assessed as percent of control at 50000 nM by qPCR analysis relative to control; parameters: scale not given: the % may be the effect or the level left
Casein kinase II subunit alpha' (Homo sapiens), sequence (P19784 whole entry, looked up, the tested form may be a part): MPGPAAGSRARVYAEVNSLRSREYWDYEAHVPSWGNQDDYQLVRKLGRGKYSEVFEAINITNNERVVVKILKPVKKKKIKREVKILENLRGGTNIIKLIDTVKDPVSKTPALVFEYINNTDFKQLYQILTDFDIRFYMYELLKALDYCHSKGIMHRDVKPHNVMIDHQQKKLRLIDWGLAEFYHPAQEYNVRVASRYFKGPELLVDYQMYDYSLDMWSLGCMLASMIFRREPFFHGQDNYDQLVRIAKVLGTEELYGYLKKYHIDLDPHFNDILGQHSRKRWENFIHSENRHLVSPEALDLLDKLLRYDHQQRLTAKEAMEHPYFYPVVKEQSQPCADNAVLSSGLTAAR

[23] = target: Tyrosine-protein kinase JAK2 (Homo sapiens) (UniProt O60674); assay: Inhibition of DNA-tagged human JAK2 JH1 catalytic domain assessed as percent of control at 50000 nM by qPCR analysis relative to control; parameters: scale not given: the % may be the effect or the level left
[24] = target: Mitogen-activated protein kinase kinase kinase 12 (Homo sapiens) (UniProt Q12852); assay: Inhibition of DNA-tagged human DLK assessed as percent of control at 50000 nM by qPCR analysis relative to control; parameters: scale not given: the % may be the effect or the level left
[25] = target: Insulin receptor-related protein (Homo sapiens) (UniProt P14616); assay: Inhibition of DNA-tagged human INSRR assessed as percent of control at 50000 nM by qPCR analysis relative to control; parameters: scale not given: the % may be the effect or the level left
KG-1 = assay: Cytotoxicity against human KG-1 cells at 0.1-100 uM assessed as decrease in cell viability relative to control; assay type: functional, cell-based
[26] = target: Serine/threonine-protein kinase VRK2 (Homo sapiens) (UniProt Q86Y07); assay: Inhibition of DNA-tagged human VRK2 assessed as percent of control at 50000 nM by qPCR analysis relative to control; parameters: scale not given: the % may be the effect or the level left
[27] = target: Receptor tyrosine-protein kinase erbB-4 (Homo sapiens) (UniProt Q15303); assay: Inhibition of DNA-tagged human ERBB4 assessed as percent of control at 50000 nM by qPCR analysis relative to control; parameters: scale not given: the % may be the effect or the level left
[28] = test system: Tyrosine-protein kinase ABL1 (Homo sapiens), P00519 [E255K]; assay: Inhibition of DNA-tagged phosphorylated human ABL1 E255K mutant assessed as percent of control at 50000 nM by qPCR analysis relative to control; parameters: scale not given: the % may be the effect or the level left

Which Activity (MV4-11) does the source give for `CN1C(=O)/C(=C2/C(=O)Nc3ccccc32)c2ccccc21` here?
Its Activity is “Active”.

What about the Activity [1] of the same molecule?
The Activity was 100%.

And the Activity [2]?
The Activity was 100%.

And the Activity [3]?
Its Activity is 80%.

What about the Activity [4] of the same molecule?
The Activity was 98%.

What about the Activity [5] of the same molecule?
Its Activity is 87%.

What about the Activity [6] of the same molecule?
The Activity was 86%.

And the Activity [7]?
The Activity was 100%.

And the Activity [8]?
Its Activity is 99%.

What about the Activity [9] of the same molecule?
Its Activity is 84%.

And the Activity [10]?
Its Activity is 98%.

What about the Activity [11] of the same molecule?
Its Activity is 100%.

And the Activity [12]?
The Activity was 97%.

And the Activity [13]?
The Activity was 99%.

What about the Activity [14] of the same molecule?
The Activity was 68%.

What about the Activity [15] of the same molecule?
Its Activity is 100%.

What about the Activity [16] of the same molecule?
The Activity was 83%.

What about the Activity [17] of the same molecule?
The Activity was 100%.

What about the Activity [18] of the same molecule?
Its Activity is 100%.

And the Activity [19]?
The Activity was 100%.

And the Activity [20]?
Its Activity is 83%.

What about the Activity [21] of the same molecule?
The Activity was 78%.

What about the Activity [22] of the same molecule?
Its Activity is 82%.

What about the Activity [23] of the same molecule?
Its Activity is 73%.

And the Activity [24]?
The Activity was 100%.

What about the Activity [25] of the same molecule?
Its Activity is 84%.

And the Activity (KG-1)?
Its Activity is “Active”.

What about the Activity [26] of the same molecule?
The Activity was 79%.

And the Activity [27]?
Its Activity is 88%.

And the Activity [28]?
The Activity was 100%.
